Source: patent US20240101552A1, “CARBONYL HETEROCYCLIC COMPOUND AND APPLICATION THEREOF” (SHANGHAI PHARMACEUTICALS HOLDING CO., LTD., priority 2020, published 2024)

Molecular target: LANCL2 (Homo sapiens (Human), UniProt Q9NS86)
Assay: SPR (BIACORE S200) kinetic determination of LANCL2-small molecule interactions
Format: binding
Details: for Kd: immobilized LANCL2, 1:1 binding model, pH 6.5, 25° C.; for Rmax (RU): maximum binding force
Experimental: 1.1 Reagent Materials • Ligand: LANCL2 • Running buffer: 20 mM MES, 150 mM NaCl, 0.05% P20, pH 6.5, 1% DMSO
Injection conditions for small molecule compounds: a flow rate of 30 μL/min, a binding time of 60 s, a dissociation time of 300 s.
Running buffer: 20 mM MES, 150 mM NaCl, 0.05% P20, pH 6.5, 1% DMSO.
Sample chamber temperature: 25° C.; analysis temperature: 25° C.
Kinetic determination of LANCL2-small molecule interactions was performed. The kinetic parameters of small molecules BT-11 and L-1 to 60 (analytes) binding to LANCL2 (ligand) were determined using BIACORE S200. Data were generated in triplicate in a dose-dependent manner (5-8 titration points) and analyzed to determine binding models (Langmuir, conformational shifts, etc.), real-time association and dissociation constants, and equilibrium dissociation constants. SPR technology allows the validation of specific LANCL2-phytochemical interactions as well as an increased insight into the gold standard of binding mechanisms and rates. Experiments were performed on carboxymethyl polydextrose (CM5) sensor chips by amine-coupled covalent attachment of LANCL2. Data were analyzed with BIACORE S200T200 evaluation software (version 1), so as to determine affinity binding constants (KD) using a 1:1 binding model.
An optical technique for detecting molecular interactions, SPR, was used to measure the binding affinity between LANCL2 and a ligand thereof (compound to be tested). Purified recombinant LANCL2 protein was immobilized on a BIACORE sensor chip and small molecules were injected onto the protein surface using an equipment of microfluidic system. The change in total mass on the chip surface, corresponding to a small binding to the protein, was measured. […] The equilibrium dissociation constant (Kd) was often used to describe the affinity between a ligand and a protein, such as affinity degree of a ligand binding to a specific protein. Ligand-protein affinity was affected by non-covalent intermolecular interactions between two molecules, such as hydrogen bonding, electrostatic interactions, hydrophobic bonds and van der Waals forces. The steady-state affinity (Kd) for each interaction could be measured by plotting equilibrium binding levels against compound concentrations.

LANCL2, sequence (Q9NS86 whole entry, species assumed): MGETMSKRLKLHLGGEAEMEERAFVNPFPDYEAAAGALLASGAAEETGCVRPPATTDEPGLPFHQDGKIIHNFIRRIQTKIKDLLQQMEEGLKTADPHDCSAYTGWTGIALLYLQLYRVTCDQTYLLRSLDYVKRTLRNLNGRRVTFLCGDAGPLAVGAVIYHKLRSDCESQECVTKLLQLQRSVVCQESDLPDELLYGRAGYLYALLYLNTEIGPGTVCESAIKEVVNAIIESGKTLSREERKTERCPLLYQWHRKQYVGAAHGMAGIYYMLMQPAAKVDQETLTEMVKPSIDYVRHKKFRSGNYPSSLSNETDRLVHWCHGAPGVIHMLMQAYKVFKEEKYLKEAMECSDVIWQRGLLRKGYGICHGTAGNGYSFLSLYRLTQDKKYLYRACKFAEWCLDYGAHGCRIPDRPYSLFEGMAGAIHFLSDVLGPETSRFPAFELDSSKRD

| Compound | Kd [µM] | Rmax (RU) | binding activity compared with positive reference compound BT-11 |
| --- | --- | --- | --- |
| O=C(c1cccc(-c2nc3ccccc3[nH]2)n1)N1CC2CN(C(=O)c3n[nH]c4ccccc34)CC2C1 [Embodiment L-120, (5-(6-(1Hbenzo[d]imidazol-2-yl)picolinoyl)hexahydropyrrolo[3,4-c]pyrrol-2(1H)-yl)(1H-indazol-3-yl)methanone] | 22.1 | 8.9 |  |
| O=C(c1cccc(-c2nc3ccccc3[nH]2)n1)N1CCC2(CCCN(C(=O)c3cccc(-c4nc5ccccc5[nH]4)n3)C2)CC1 [Embodiment L-58, (2,9-diazaspiro[5.5]undecane-2,9-diyl)bis(6-(1H-benzo[d]imidazol-2-yl)pyridin-2-yl)methanone] | 21.5 | 3.3 |  |
| O=C(NC1CCN(C(=O)c2ccnc(Nc3ccccc3)n2)CC1)c1ccnc(Nc2ccccc2)n1 [Embodiment L-79] | 24.8 | 13 |  |
| O=C(NC1CCN(C(=O)c2cccc(-c3nc4ccccc4[nH]3)n2)CC1)C1CCCC(c2nc3ccccc3[nH]2)C1 [Embodiment L-20] | 43.3 | 5.3 |  |
| NC(=O)c1sccc1NC(=O)c1ccc(C(=O)N2CCN(C(=O)c3cccc(-c4nc5ccccc5[nH]4)n3)CC2)cc1 [Embodiment L-115, 3-(4-(4-(6-(1H-benzo[d]imidazol-2-yl)picolinoyl)piperazine-1-carbonyl)benzamido)thiophene-2-carboxamide] | 17.7 | 20.8 |  |
| O=C(c1cccc(Nc2ccccc2)n1)N1CC2CN(C(=O)c3cccc(-c4nc5ccccc5[nH]4)n3)CC2C1 [Embodiment L-46, (5-(6-(1H-benzo[d]imidazol-2-yl)picolinoyl)hexahydropyrrolo[3,4-c]pyrrol-2(1H)-yl)(6-(phenylamino)pyridin-2-yl)methanone] | 30.4 | 10.6 |  |
| O=C(NC1CCN(C(=O)c2cccc(-c3nc4ccccc4[nH]3)n2)CC1)c1ccnc(Nc2ccccc2)n1 [Embodiment L-19] | 25.3 | 9.7 |  |
| O=C(c1cccc(Nc2ccccc2)n1)N1CCC2(CCN(C(=O)c3cccc(-c4nc5ccccc5[nH]4)n3)C2)C1 [Embodiment L-65, (7-(6-(1H-benzo[d]imidazol-2-yl)picolinoyl)-2,7-diazaspiro[4.4]non-2-yl)(6-(phenylamino)pyridin-2-yl)methanone] | 26 | 6.5 |  |
| O=C(c1ccc(F)c(Cl)c1)N1CC2CN(C(=O)c3cccc(-c4nc5ccccc5[nH]4)n3)CC2C1 [Embodiment L-124, (5-(6-(1Hbenzo[d]imidazol-2-yl)picolinoyl)hexahydropyrrolo[3,4-c]pyrrol-2(1H)-yl)(3-chloro-4-fluorophenyl)methanone] | 8.79 | 4.8 |  |
| O=C1CCC(C(=O)N2CC3CN(C(=O)c4cccc(-c5nc6ccccc6[nH]5)n4)CC3C2)=NN1 [Embodiment L-121, 6-(5-(6-(1Hbenzo[d]imidazol-2-yl)picolinoyl)octahydropyrrolo[3,4-c]pyrrole-2-carbonyl)-4,5-dihydropyridazin-3(2H)-one] | 20.8 | 2.3 |  |
| O=C(c1ccnc(Nc2ccccc2)n1)N1CCC2(CC1)CCN(C(=O)c1ccnc(Nc3ccccc3)n1)CC2 [Embodiment L-78, (3,9-diazaspiro[5.5]undecane-3,9-diyl)bis((2-(phenylamino)pyrimidin-4-yl)methanone)] | 81.5 | 14.4 |  |
| O=C(c1cccc(-c2nc3ccccc3[nH]2)n1)N1CCC2(CC1)CCN(C(=O)c1ccnc(Nc3ccccc3)n1)CC2 [Embodiment L-27, (9-(6-(1H-benzo[d]imidazol-2-yl)picolinoyl)-3,9-diazaspiro[5.5]undecan-3-yl)(2-(phenylamino)pyrimidin-4-yl)methanone] | 13.3 | 6.5 |  |
| O=C(c1cccc(-c2nc3ccccc3[nH]2)n1)N1CCC2(CC1)CCN(C(=O)c1ccnc(Nc3ccccc3)n1)C2 [Embodiment L-62, (8-(6-(1H-benzo[d]imidazol-2-yl)picolinoyl)-2,8-diazaspiro[4.5]dec-2-yl)(2-(phenylamino)pyrimidin-4-yl)methanone] | 29.3 | 5.7 |  |
| O=C(c1cccc(-c2nc3ccccc3[nH]2)n1)N1CCC2(CCCN(C(=O)c3ccnc(Nc4ccccc4)n3)C2)CC1 [Embodiment L-64, (9-(6-(1H-benzo[d]imidazol-2-yl)picolinoyl)-2,9-diazaspiro[5.5]undecan-2-yl)(2-(phenylamino)pyrimidin-4-yl)methanone] | 48.8 | 6.1 |  |
| O=C(c1cccc(-c2nc3ccccc3[nH]2)n1)N1CCN(C(=O)c2n[nH]c3ccccc23)CC1 [Embodiment L-110, (4-(6-(1H-benzo[d]imidazol-2-yl)picolinoyl)piperazin-1-yl)(1H-indazol-3-yl)methanone] | 26.2 | 15 |  |
| O=C(N[C@H]1[C@@H]2CN(C(=O)c3cccc(Nc4ccccc4)n3)C[C@@H]21)c1cccc(Nc2ccccc2)n1 [Embodiment L-101] | 23.3 | 5.5 |  |
| O=C(c1cccc(-c2nc3ccccc3[nH]2)n1)N1CCC2(CC1)CCN(C(=O)c1cccc(-c3nc4ccccc4[nH]3)n1)CC2 [Embodiment L-9, (3,9-diazaspiro[5.5]undecane-3,9-diyl)bis((6-(1H-benzo[d]imidazol-2-yl)pyridin-2-yl)methanone)] | 3.44 | 3.9 | better binding activities than the positive reference compound BT-11 |
| O=C(NC1CCN(C(=O)c2cccc(-c3cn4ccccc4n3)c2)CC1)c1ccnc(Nc2ccccc2)n1 [Embodiment L-42, N-(1-(3-(imidazo[1,2-a]pyridin-2-yl)benzoyl)piperidin-4-yl)-2-(phenylamino)pyrimidine-4-formamide] | 13.2 | 12 |  |
| O=C(c1cccc(-c2cn3ccccc3n2)c1)N1CCC2(CC1)CCN(C(=O)c1cccc(-c3cn4ccccc4n3)c1)CC2 [Embodiment L-73, (3,9-diazaspiro[5.5]undecane-3,9-diyl)bis((3-(imidazo[1,2-a]pyridin-2-yl)phenyl)methanone)] | 8.73 | 4.5 |  |
| O=C(NC1CCN(C(=O)c2cccc(-c3nc4ccccc4[nH]3)n2)CC1)c1ccnc(Nc2ccccn2)n1 [Embodiment L-21] | 9.88 | 7.3 |  |
| Cc1cn(-c2cccc(C(=O)N3CCN(C(=O)c4cccc(-c5nc6ccccc6[nH]5)n4)CC3)c2)cn1 [Embodiment L-117, (4-(6-(1H-benzo[d]imidazol-2-yl)picolinoyl)piperazin-1-yl)(3-(4-methyl-1H-imidazol-1-yl)phenyl)methanone] | 27 | 3.2 |  |
| CCCCOc1ccc(C(=O)NC2CCN(C(=O)c3cccc(-c4cn5ccccc5n4)c3)CC2)cc1 [Embodiment L-107, 4-Butoxy-N-(1-(3-(imidazo[1,2-a]pyridin-2-yl)benzoyl)piperidin-4-yl)benzamide] | 6.19 | 4.5 |  |
| O=C(c1cccc(Nc2ccccc2)n1)N1CCCC2(CCN(C(=O)c3cccc(-c4nc5ccccc5[nH]4)n3)CC2)C1 [Embodiment L-63, (9-(6-(1H-benzo[d]imidazol-2-yl)picolinoyl)-2,9-diazaspiro[5.5]undecan-2-yl)(6-(phenylamino)pyridin-2-yl)methanone] | 53.5 | 7.6 |  |
| O=C(NC1C2CN(C(=O)c3cccc(-c4nc5ccccc5[nH]4)n3)CC21)c1ccnc(Nc2ccccc2)n1 [Embodiment L-23, N-(3-(6-(1H-benzo[d]imidazol-2-yl)picolinoyl)-3-azabicyclo[3.1.0]hexan-6-yl)-2-(phenylamino)pyrimidine-4-carboxamide] | 10.3 | 7.5 |  |
| Cc1ccncc1C(=O)N1CC2CN(C(=O)c3cccc(-c4nc5ccccc5[nH]4)n3)CC2C1 [Embodiment L-123, (5-(6-(1Hbenzo[d]imidazol-2-yl)picolinoyl)hexahydropyrrolo[3,4-c]pyrrol-2(1H)-yl)(4-methylpyridin-3-yl)methanone] | 18.3 | 3.9 |  |
